Assay results published in patent publication US9840478B2 (MERCK SHARP & DOHME CORP., priority 2013, dated 2017).

Test system: HIV-1 (H9IIIB strain)
Test: Cell-based HIV infection assay using a reporter (Cell-Based), MT4-GFP cells
Details: Human immunodeficiency virus 1, MT4-GFP cells infected with HIV-1 H9IIIB; 50% normal human serum; mean of at least two independent experiments; read-out: Cell-based IP
How it was run: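 MT4-GFP cells (HIV LTR-driven GFP) infected 24 h with HIV-1 H9IIIB at low MOI, then washed and plated with compounds in RPMI + 50% normal human serum, 0.4% DMSO final. Green cells counted at 24 and 48 h; R0 = 48 h/24 h ratio, inhibition normalized to DMSO and triple-drug control; IC50 from 4-parameter fit.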

SMILES	IC50 [nM]
CS(=O)(=O)N1[C@@H](CCc2c(F)cccc2NC(=O)[C@@H](N)[C@@H](c2ccc(F)cc2)c2cc(F)cc(F)c2)CNC[C@@H]1C1CC1 [Example 205, (βS)-N-(2-{2-[(2S,6S)-6-cyclopropyl-1-(methylsulfonyl)piperazin-2-yl]ethyl}-3-fluorophenyl)-β-(3,5-difluorophenyl)-4-fluoro-L-phenylalaninamide]	22
O=C(C[C@@H](c1ccc(F)cc1)c1cc(F)cc(F)c1)Nc1cncc(F)c1CC[C@H]1CNCCN1S(=O)(=O)N1CCCC1 [Example 323, (3S)-3-(3,5-difluorophenyl)-3-(4-fluorophenyl)-N-(5-fluoro-4-{2-[(2S)-1-(pyrrolidin-1-ylsulfonyl)piperazin-2-yl]ethyl}pyridin-3-yl)propanamide]	4.8
COC(=O)N[C@H](C(=O)Nc1cccc(F)c1CC[C@H]1CNC[C@H](C)N1S(=O)(=O)c1ccc(OC)cc1)[C@@H](c1cccc(Cl)c1)C(C)C [Example 250, (βR)-3-chloro-N-[3-fluoro-2-(2-{(2S,6S)-1-[(4-methoxyphenyl)sulfonyl]-6-methylpiperazin-2-yl}ethyl)phenyl]-Nα-(methoxycarbonyl)-β-(1-methylethyl)-L-phenylalaninamide]	34
COC(=O)N[C@H](C(=O)Nc1cccc(F)c1CC[C@H]1CNCCN1S(=O)(=O)c1ccccc1)[C@@H](c1ccc(Cl)cc1)c1cncc(F)c1 [Example 55, (βS)-4-chloro-N-(3-fluoro-2-{2-[(2S)-1-(phenylsulfonyl)piperazin-2-yl]ethyl}phenyl)-β-(5-fluoropyridin-3-yl)-Nα-(methoxycarbonyl)-L-phenylalaninamide]	9
N[C@H](C(=O)Nc1cccc(F)c1CCC1CNCCN1S(=O)(=O)c1ccccc1)C(c1cc(F)cc(F)c1)c1cc(F)cc(F)c1 (stereo partly drawn) [Example 34, β-(3,5-difluorophenyl)-3,5-difluoro-N-(3-fluoro-2-{2-[1-(phenylsulfonyl)piperazin-2-yl]ethyl}phenyl)-L-phenylalaninamide]	16
CC[C@@H]1CNC[C@H](CCc2c(F)cccc2NC(=O)[C@@H](NC(=O)OC)[C@@H](c2ccc(F)cc2)c2cc(F)cc(F)c2)N1S(C)(=O)=O [Example 270, (βS)-β-(3,5-difluorophenyl)-N-(2-{2-[(2S,6R)-6-ethyl-1-(methylsulfonyl)piperazin-2-yl]ethyl}-3-fluorophenyl)-4-fluoro-Nα-(methoxycarbonyl)-L-phenylalaninamide]	24
COC(=O)N[C@H](C(=O)Nc1cccc(F)c1CC[C@H]1CNC[C@H](C)N1S(C)(=O)=O)[C@@H](c1ccc(F)cc1)C1CCOCC1 [Example 130, (βR)-4-fluoro-N-(3-fluoro-2-{2-[(2S,6S)-6-methyl-1-(methylsulfonyl)piperazin-2-yl]ethyl}phenyl)-Nα-(methoxycarbonyl)-β-(tetrahydro-2H-pyran-4-yl)-L-phenylalaninamide]	55
COC(=O)N[C@H](C(=O)Nc1cccc(F)c1CC[C@H]1CNC[C@@H](C)N1S(=O)(=O)c1ccccc1)C1(c2ccc(F)c(F)c2)CCOCC1 [Example 290, methyl {(1S)-1-[4-(3,4-difluorophenyl)tetrahydro-2H-pyran-4-yl]-2-[(3-fluoro-2-{2-[(2S,6R)-6-methyl-1-(phenylsulfonyl)piperazin-2-yl]ethyl}phenyl)amino]-2-oxoethyl}carbamate]	15
COC(=O)N[C@H](C(=O)Nc1cccc(F)c1CC[C@H]1CNC[C@H](C)N1S(C)(=O)=O)[C@@H](c1ccc(Cl)cc1)C1CCOCC1 [Example 139, (βR)-4-chloro-N-(3-fluoro-2-{2-[(2S,6S)-6-methyl-1-(methylsulfonyl)piperazin-2-yl]ethyl}phenyl)-Nα-(methoxycarbonyl)-β-(tetrahydro-2H-pyran-4-yl)-L-phenylalaninamide]	36
C[C@@H]1CNC[C@H](CCc2c(F)cccc2NC(=O)[C@@H](N)[C@@H](c2ccc(F)cc2)c2cc(F)cc(F)c2)N1S(=O)(=O)c1ccccc1 [Example 94, (βS)-β-(3,5-difluorophenyl)-4-fluoro-N-(3-fluoro-2-{2-[(2S,6R)-6-methyl-1-(phenylsulfonyl)piperazin-2-yl]ethyl}phenyl)-L-phenylalaninamide]	24
C[C@@H]1CNC[C@H](CCc2c(F)cccc2NC(=O)[C@@H](N)[C@H](c2cncc(F)c2)c2cccc(Cl)c2)N1S(=O)(=O)c1ccccc1 [Example 261, (βS)-3-chloro-N-(3-fluoro-2-{2-[(2S,6R)-6-methyl-1-(phenylsulfonyl)piperazin-2-yl]ethyl}phenyl)-β-(5-fluoropyridin-3-yl)-L-phenylalaninamide]	70
COC(=O)N[C@H](C(=O)Nc1cccc(F)c1CC[C@H]1CNCCN1S(=O)(=O)c1ccccc1)[C@@H](c1ccc(Cl)cc1)C1CCOC(C)(C)C1 (stereo partly drawn) [Example 76, (βR)-4-chloro-β-(2,2-dimethyltetrahydro-2H-pyran-4-yl)-N-(3-fluoro-2-{2-[(2S)-1-(phenylsulfonyl)piperazin-2-yl]ethyl}phenyl)-Nα-(methoxycarbonyl)-L-phenylalaninamide]	9.4
COC(=O)N[C@H](C(=O)Nc1cccc(F)c1CC[C@H]1CNC[C@H](C)N1S(=O)(=O)c1ccc(OC)cc1)[C@@H](Cc1ccc(F)cc1)c1ccc(Cl)cc1 [Example 187, (βS)-4-chloro-β-(4-fluorobenzyl)-N-[3-fluoro-2-(2-{(2S,6S)-1-[(4-methoxyphenyl)sulfonyl]-6-methylpiperazin-2-yl}ethyl)phenyl]-Nα-(methoxycarbonyl)-L-phenylalaninamide]	35
COC(=O)N[C@H](C(=O)Nc1cncc(F)c1CC[C@H]1CNC[C@H](C)N1S(=O)(=O)c1ccc(OC)cc1)[C@@H](c1ccc(F)cc1)c1cc(F)cc(F)c1 [Example 246, (βS)-β-(3,5-difluorophenyl)-4-fluoro-N-[5-fluoro-4-(2-{(2S,6S)-1-[(4-methoxyphenyl)sulfonyl]-6-methylpiperazin-2-yl}ethyl)pyridin-3-yl]-Nα-(methoxycarbonyl)-L-phenylalaninamide]	5.9
O=C(C[C@@H](c1ccc(F)cc1)c1cc(F)cc(F)c1)Nc1cncc(F)c1CC[C@H]1CNCCN1S(=O)(=O)CC(F)(F)F [Example 315, (3S)-3-(3,5-difluorophenyl)-3-(4-fluorophenyl)-N-[5-fluoro-4-(2-{(2S)-1-[(2,2,2-trifluoroethyl)sulfonyl]piperazin-2-yl}ethyl)pyridin-3-yl]propanamide]	1900
C[C@@H]1CNC[C@H](CCc2c(F)cccc2NC(=O)[C@@H](N)C2(c3ccc(F)c(F)c3)CCOCC2)N1S(=O)(=O)c1ccccc1 [Example 291, (2S)-2-amino-2-[4-(3,4-difluorophenyl)tetrahydro-2H-pyran-4-yl]-N-(3-fluoro-2-{2-[(2S,6R)-6-methyl-1-(phenylsulfonyl)piperazin-2-yl]ethyl}phenyl)ethanamide]	100
O=C(C[C@@H](c1ccc(F)cc1)c1cc(F)cc(F)c1)Nc1cncc(F)c1CC[C@H]1CNCCN1C(=O)c1ccc2c(c1)OC(F)(F)O2 [Example 345, (3S)-N-[4-(2-{(2S)-1-[(2,2-difluoro-1,3-benzodioxol-5-yl)carbonyl]piperazin-2-yl}ethyl)-5-fluoropyridin-3-yl]-3-(3,5-difluorophenyl)-3-(4-fluorophenyl)propanamide]	1600
COc1ccc(S(=O)(=O)N2[C@@H](CCc3c(F)cccc3NC(=O)[C@@H](N)C(c3cccc(F)c3)c3cccc(F)c3)CNC[C@@H]2C)cc1 [Example 156, 3-fluoro-N-[3-fluoro-2-(2-{(2S,6S)-1-[(4-methoxyphenyl)sulfonyl]-6-methylpiperazin-2-yl}ethyl)phenyl]-β-(3-fluorophenyl)-L-phenylalaninamide]	14
COC(=O)N[C@H](C(=O)N[C@H]1CCCC[C@@H]1CC[C@H]1CNCCN1S(=O)(=O)c1ccccc1)C(c1ccc(F)cc1)c1ccc(F)cc1 [Example 354, methyl ((S)-1,1-bis(4-fluorophenyl)-3-oxo-3-(((1S,2R)-2-(2-((S)-1-(phenylsulfonyl)piperazin-2-yl)ethyl)cyclohexyl)amino)propan-2-yl)carbamate]	22
COC(=O)N[C@H](C(=O)Nc1cccc(F)c1CC[C@H]1CNC[C@@H](C)N1S(=O)(=O)c1ccccc1)[C@@H](c1cc(F)cc(F)c1)C1CCOCC1 [Example 283, (βR)-3,5-difluoro-N-(3-fluoro-2-{2-[(2S,6R)-6-methyl-1-(phenylsulfonyl)piperazin-2-yl]ethyl}phenyl)-Nα-(methoxycarbonyl)-β-(tetrahydro-2H-pyran-4-yl)-L-phenylalaninamide]	14
COC(=O)N[C@H](C(=O)Nc1cncc(F)c1CC[C@H]1CNC[C@H](C)N1S(=O)(=O)C1CC1)[C@@H](c1ccc(Cl)cc1)c1cccc(F)c1 [Example 11, Methyl ((1S,2S)-1-(4-chlorophenyl)-3-((4-(2-((2S,6S)-1-(cyclopropylsulfonyl)-6-methylpiperazin-2-yl)ethyl)-5-fluoropyridin-3-yl)amino)-1-(3-fluorophenyl)-3-oxopropan-2-yl)carbamate]	11
O=C(C[C@@H](c1ccc(F)cc1)c1cc(F)cc(F)c1)Nc1cncc(F)c1CC[C@H]1CNCCN1S(=O)(=O)CC1CC1 [Example 302, (3S)-N-[4-(2-{(2S)-1-[(cyclopropylmethyl)sul-fonyl]piperazin-2-yl}ethyl)-5-fluoropyridin-3-yl]-3-(3,5-difluorophenyl)-3-(4-fluorophenyl)propanamide]	24
C[C@@H]1CNC[C@H](CCc2c(F)cncc2NC(=O)[C@@H](N)[C@@H](c2ccc(F)cc2)c2cc(F)cc(F)c2)N1S(=O)(=O)c1ccccc1 [Example 13, (βS)-β-(3,5-difluorophenyl)-4-fluoro-N-(5-fluoro-4-{2-[(2S,6R)-6-methyl-1-(phenylsulfonyl)piperazin-2-yl]ethyl}pyridin-3-yl)-L-phenylalaninamide]	20
